Tests used:
[1] = Metabolite identification of Compound 18 incubated with human plasma; type: in vitro ADME; set-up: key to Detection at 0 min / Detection at 30 min / Detection at 60 min / Detection at 90 min: +: Detected; ND: Not detected; details: Compound 18 (10 μM), human plasma
Experimental: Metabolite Identification: Compound 18 (10 μM) was incubated with human plasma (29.0 mg protein/incubation) in incubation mixtures (200 μL final incubation volume) that consisted of 50/50 v/v neat plasma (undiluted)/substrate solution in 50 mM phosphate buffer, pH 7.4). The plasma was obtained from male and female donors and contained K2EDTA anticoagulant. Reactions were started by addition of the substrate solution to human plasma and were stopped at four designated time points (0, 30, 60 and 90 min) by the addition of 600 μL of stop reagent (acetonitrile). Stopped incubation samples were centrifuged (e.g., 10,000×g for 10 min at 10° C.) and the supernatant fractions were analyzed by LC-MS/MS to characterize the metabolites formed from compound 18. Additional incubations were performed with the positive control procaine […] to establish competency of the test system. Samples were analyzed by LC-MS/MS.
(§1) In vitro metabolite identification studies using compound 18 were also performed. […] The disappearance of parent compound 18 and the primary metabolite, compound 166, from mouse liver tissue was measured after dosing 0.25 mg/kg mRNA on days 1, 8, and 15.

mouse liver tissue = test: Disappearance of parent lipid and primary metabolite from mouse liver after 0.25 mg/kg mRNA on days 1, 8 and 15; type: in vivo
Experimental: as §1

human hepatocytes = test: Metabolite profiling of Compound 18 incubated with human hepatocytes; type: in vitro ADME; set-up: key: +: Detected; ND: Not detected; details: Compound 18 (10 μM), human hepatocytes
Experimental: as §1
The results of metabolic profiling and characterization for compound 18 incubated with human hepatocytes or human plasma are summarized in Tables 41 and 42, respectively.

hEPO mRNA = test: Pretreatment study (methotrexate or dexamethasone) with MC3 formulation in Cynomolgus monkeys; type: in vivo; details: MC3 formulation with hEPO mRNA, once weekly for four weeks
Text: In order to combat negative effects, nanoparticle compositions are co-administered with one or more substances (e.g., co-medications or additional therapeutic and/or prophylactics) to subjects. Potentially useful additional therapeutic and/or prophylactics include steroids (e.g., corticosteroids), anti-histamines, H1 receptor blockers, H2 receptor blockers, anti-inflammatory compounds, statins, BTK inhibitors, S1P1 agonists, glucocorticoid receptor modulators (GRMs), and estradiols. Non-human primates are pretreated with one or more additional therapeutic agents selected from dexamethasone and acetaminophen. The additional therapeutic agent is administered either 24 hours, 1 hour, or both 24 hours and 1 hour before administration of a nanoparticle composition. Cytokine profiles, inflammation, and other parameters are measured and compared to evaluate the effectiveness of pretreatment
The effects of pretreatment to non-human primates were evaluated using a standard MC3 formulation including an mRNA encoding hEPO. Male monkeys were administered the nanoparticle composition once weekly for four weeks at a dose rate of 5 ml/kg/h and were pretreated with either methotrexate or dexamethasone.
As shown, in the absence of any pretreatment, maximal expression levels decreased nearly 70% over the course of the study.

SMILES	Detection at 30 min ([1]; 30 min)	Detection at 60 min ([1]; 60 min)	Detection at 90 min ([1]; 90 min)	clearance from mouse liver tissue (mouse liver tissue)	Detection at 60 min (human hepatocytes; 60 min)	Detection at 120 min (human hepatocytes; 120 min)	Detection at 240 min (human hepatocytes; 240 min)	Effect of pretreatment on protein expression (hEPO mRNA)
CCCCCCCCC(CCCCCCCC)OC(=O)CCCCCCCN(CCO)CCCCCCCC(=O)O [Compound 166, 8-((8-(Heptadecan-9-yloxy)-8-oxooctyl)(2-hydroxyethyl)amino)octanoic acid]	+	+	+	rapid clearance	+	+	+	–
CN(Cc1cnc2nc(N)nc(N)c2n1)c1ccc(C(=O)N[C@@H](CCC(=O)O)C(=O)O)cc1 [Methotrexate, methotrexate]	–	–	–	–	–	–	–	did not confer any particular beneficial effect
